Experimental findings from patent publication US20250381277A1, “COMPOSITIONS AND METHODS FOR TREATMENT OF NEUROLOGICAL DISORDERS” (Dana-Farber Cancer Institute, Inc., priority 2022, published 2025) are described below.

In one experiment the test system is 5XFAD mice. As to the kind of experiment: Weekly intravenous or intranasal cyclic RGD (Cilengitide) administration to 5XFAD mice: microglial proinflammatory responses. The class given is in vivo, mouse. As to conditions: vs saline. As for the experimental part:
(A) Schematic outline of cyclic RGD (Cilengitide) administration. Weekly intravenous injection (25 mg/kg) or intranasal delivery (10 mg/kg) of Cilengitide or vehicle control (saline) into 5XFAD mice starting at 6-mo of age for 1 or 2 months. Microglial proinflammatory responses were analyzed after 1-mo or 2-mo treatment. […] IV injection of Cilengitide for 1 month reduced the percentage of CD11c^+ microglia by 50% and decreased CD11c^+ microglial TNF-α production by ˜50% in 5XFAD mice (n=3). […]. […] IV injection of Cilengitide for 2 months reduced the percentage of CD11c+ microglia by 60% and decreased CD11c+ microglial TNF-α production by 55% in 5XFAD mice compared with vehicle (saline) treated control mice (n=3). *p<0.05, **p<0.01, ***p<0.001.
Weekly administration of cyclic RGD (Cilengitide) was given intravenously or intranasally to 6-mo old mice, continuing for 1 or 2 months. Microglial proinflammatory responses and Aβ plaque pathology were analyzed after 1-mo or 2-mo of treatment (FIG. 43A).

The next experiment deals with CD11c^− microglia. Description: Apoptotic neuron (AN) uptake and CD11c^- to CD11c^+ differentiation of microglia with αVβ3 / TAM receptor inhibitors. To be noted: P5 B6-WT CD11c^− microglia, 72 h with pHrodo-labeled ANs 1:1; cilengitide 10 μM, LDC1267 1 μM. The class given is cell-based, mouse. The text has this: (A) Brain single cell suspensions of 9-mo old WT mice were generated for validation of microglial CD11c expression by flow cytometry. We first gate on CD11b^+ cells from single/live cells followed by subsequent gating of CD11b^+CD45^low populations as potential microglia. […] In contrast, CCR2 but not Tmem 119 expression is detected in the CD11b^+CD45^high fraction, i.e., putative macrophage populations. Analysis of the CD11b^+CD45^low microglial population using FMO negative controls for these FACS plots confirms specificity. […] (B) The proportion of CD11c^+ microglia in C57BL/6 (B6) mice during early development and normal aging (n=3) was determined by flow cytometry analysis. CD11c^+ microglia were initially present at late embryonic day (E18.5), peaked at early postanal day (P5) and gradually declined to marginal levels in young adulthood (3-mon) followed by re-emergence and further expansion during aging. (C) CD11c^− microglia were isolated from P5 B6-WT mice by negative section with anti-CD11c magnetic beads (purity >99%) followed by co-incubation×72 h in the presence or absence of pHrodo fluorescent dye-labeled apoptotic neurons (ANs) at a 1:1 ratio. After 72 h incubation, 23% of total CD11c^− microglia had ingested ANs (AN^+), of which 77.4% of these AN^+ microglia were CD11c^+. […] Expression of CD11c was assessed in CD86^+ or MHC II^+ activated microglia. […]

The mark [1] stands for this setting: intranasal 10 mg/kg weekly, 1 month.
The mark [2] stands for this setting: intranasal 10 mg/kg weekly, 2 months.

SMILES strings stand for the structures. “Also recorded” adds a separate entry of the source.

In the case of `CC(C)[C@H]1C(=O)N[C@@H](CCCN=C(N)N)C(=O)NCC(=O)N[C@@H](CC(=O)O)C(=O)N[C@H](Cc2ccccc2)C(=O)N1C` [Cilengitide], in the experiment with 5XFAD mice (IV 25 mg/kg weekly, 1 month), the “decrease of CD11c^+ microglial TNF-α production” value was approximately 50% and the “reduction of percentage of CD11c^+ microglia” value is 50%. In the experiment with 5XFAD mice (IV 25 mg/kg weekly, 2 months), the “decrease of CD11c+ microglial TNF-α production” value is listed as 55% and the “reduction of percentage of CD11c+ microglia” value turned out to be 60%. Further, in the experiment with 5XFAD mice (setting [1]), the “CD11c^+ microglia (in words)” value is listed as “decrease; also recorded: decreased tendency” and the “reduction of TNF-α production by CD11c^+ microglia” value is on record as approximately 35%. In addition, in the experiment on 5XFAD mice (setting [2]), the “decrease of percentage of CD11c+ microglia” value worked out at 35% and the “reduction of TNF-α expression by CD11c+ microglia” value is listed as approximately 45%. Moreover, the “reduction of AN uptake by CD11c^− microglia” value with CD11c^− microglia is listed as “about 50%”.
